Data as given in patent publication US8349811B2, “Stable 6-methoxy-2′,3′-dideoxyguanosine, method for preparing the same and pharmaceutical composition containing the same” (Nanjing Changao Pharmaceutical Science & Technology Co., …, priority 2008, dated 2013).
Entries after “also recorded” stand apart in the source; their conditions may differ. One block for each molecule: values may come before it.

What was measured:
[1] = Water content of the product of the Examples by the Karl-Fischer method; type: physicochemical; details: after water absorption (Examples 1-3) or vacuum drying (Examples 4-5)
Experimental: 1 kg of powder of 6-methoxy-2′,3′-dideoxyguanosine with 2.7% (wt %) of water content is laid in a plate flat and placed in the environment with the temperature of 5 degrees centigrade and the humidity of 60% (wt %), is mixed every 1-4 hours, and the required product is obtained after 48 hours.
0.5 kg of powder of 6-methoxy-2′,3′-dideoxyguanosine with 1.5% (wt %) of water content is laid in a plate flat and placed in the environment with the temperature of 15 degrees centigrade and the humidity of 40% (wt %), is mixed every 3-5 hours, and the required product is obtained after 36 hours.
0.5 kg of powder of 6-methoxy-2′,3′-dideoxyguanosine with 3.2% (wt %) of water content is laid in a plate flat and placed in the environment with the temperature of 0 degrees centigrade and the humidity of 90% (wt %), is mixed every 2 hours, and the required product is obtained after 36 hours.
1.5 kg of powder of 6-methoxy-2′,3′-dideoxyguanosine with 60.5% (wt %) of water content is laid in a plate flat and placed in a vacuum drying box, anhydrous calcium chloride is taken as a drying agent, vacuumizing is carried out by a water pump at the temperature of 25 degrees centigrade, decompression drying is further carried out, and the required product is obtained after 48 hours.
1.0 kg of powder of 6-methoxy-2′,3′-dideoxyguanosine with 40.5% (wt %) of water content is laid in a plate flat and placed in a vacuum drying box, phosphorus pentoxide is taken as a drying agent, vacuum decompression drying is carried out at the temperature of 15 degrees centigrade, and the required product is obtained after 38 hours.

[2] = test system: DHBV DNA replication; test: Suppression of DHBV DNA replication; details: competition with ddCTP
[3] = Moisture absorption and handling under the general conditions; type: physicochemical; details: for moisture absorption: general conditions
[4] = Water-absorbing test in different humidity environments at 5 degrees centigrade; type: physicochemical
Experimental: (§1) Table 1 is a comparison table, wherein, the 6-methoxy-2′,3′-dideoxyguanosine with less than 6% (wt %) of water content is placed in different humidity environments at 5 degrees centigrade for carrying out water-absorbing tests, the products at the corresponding time points are placed in the environment with the temperature of 30 degrees centigrade and the humidity of 90% (wt %) for carrying out the acceleration test inspection, the sampling inspection are carried out at the 15th day, the 30th day and the 60th day respectively, and the inspection indexes comprise the character and the water content.

[5] = test system: hepatitis B virus (HBV); details: reported in Chinese patent CN1493301A; cited from earlier work
[6] = Acceleration test inspection at 30 degrees centigrade and humidity 90% (character and water content); type: physicochemical; details: for Acceleration Test Inspection, Water Content / Acceleration Test Inspection, Character: 30 degrees centigrade, humidity 90%
Experimental: as §1

[7] = test system: HIV (Human Immunodeficiency Virus); test: Anti-HIV experimental study of the inventors
[8] = Metabolism in plasma to ddG; type: in vitro ADME; details: metabolite 2′,3′-dideoxyguanosine (ddG)
[9] = product of placement time 14 hours, 15th Day
[10] = product of placement time 14 hours, 30th Day
[11] = product of placement time 14 hours, 60th Day
[12] = product of placement time 2 days, 15th Day
[13] = product of placement time 2 days, 30th Day
[14] = product of placement time 2 days, 60th Day
[15] = product of placement time 3 days, 15th Day
[16] = product of placement time 3 days, 30th Day
[17] = product of placement time 3 days, 60th Day
[18] = product of placement time 4 days, 15th Day
[19] = product of placement time 4 days, 30th Day
[20] = product of placement time 4 days, 60th Day
[21] = product of placement time 10 days, 15th Day
[22] = product of placement time 10 days, 30th Day
[23] = product of placement time 10 days, 60th Day

water content of the required product [1]: 22.5 % (wt %)
SMILES: COc1nc(N)nc2c1ncn2[C@H]1CC[C@@H](CO)O1 [Example 4, 6-methoxy-2′,3′-dideoxyguanosine]

water content of the required product [1]: 18.5 % (wt %)
SMILES: COc1nc(N)nc2c1ncn2[C@H]1CC[C@@H](CO)O1 [Example 5, 6-methoxy-2′,3′-dideoxyguanosine]

water content of the required product [1]: 23.5 % (wt %)
SMILES: COc1nc(N)nc2c1ncn2[C@H]1CC[C@@H](CO)O1 [Example 1, 6-methoxy-2′,3′-dideoxyguanosine]

SMILES: Nc1nc2c(ncn2[C@H]2CC[C@@H](COP(=O)(O)OP(=O)(O)OP(=O)(O)O)O2)c(=O)[nH]1 [ddGTP]
suppression of DHBV DNA replication [2]: can selectively compete with the ddCTP for suppressing the DHBV DNA replication

water content of the required product [1]: 23.2 % (wt %)
SMILES: COc1nc(N)nc2c1ncn2[C@H]1CC[C@@H](CO)O1 [Example 3, 6-methoxy-2′,3′-dideoxyguanosine]

water content of the required product [1]: 12.5 % (wt %)
SMILES: COc1nc(N)nc2c1ncn2[C@H]1CC[C@@H](CO)O1 [Example 2, 6-methoxy-2′,3′-dideoxyguanosine]

moisture absorption ([3]; stable form, water content 6-30% (wt %)): difficult to absorb the moisture
stability ([3]; stable form, water content 6-30% (wt %), room temperature): very stable at room temperature
SMILES: COc1nc(N)nc2c1ncn2[C@H]1CC[C@@H](CO)O1 [stable 6-methoxy-2′,3′-dideoxyguanosine, 6-methoxy-2′,3′-dideoxyguanosine]

Water Content When Placed in Different Humidity Environments ([4]; Humidity 40%, placement time 0 hour): 2.7 wt %
Water Content When Placed in Different Humidity Environments ([4]; Humidity 40%, placement time 1 hour): 4.3 wt %
Water Content When Placed in Different Humidity Environments ([4]; Humidity 40%, placement time 2 hours): 5.4 wt %
Water Content When Placed in Different Humidity Environments ([4]; Humidity 40%, placement time 14 hours): 8.7 wt %
Water Content When Placed in Different Humidity Environments ([4]; Humidity 40%, placement time 2 days): 12.6 wt %
Water Content When Placed in Different Humidity Environments ([4]; Humidity 40%, placement time 3 days): 21.8 wt %
Water Content When Placed in Different Humidity Environments ([4]; Humidity 40%, placement time 4 days): 22.4 wt %
Water Content When Placed in Different Humidity Environments ([4]; Humidity 40%, placement time 10 days): 21.8 wt %
Water Content When Placed in Different Humidity Environments ([4]; Humidity 60%, placement time 0 hour): 2.7 wt %
Water Content When Placed in Different Humidity Environments ([4]; Humidity 60%, placement time 1 hour): 4.7 wt %
Water Content When Placed in Different Humidity Environments ([4]; Humidity 60%, placement time 2 hours): 5.7 wt %
Water Content When Placed in Different Humidity Environments ([4]; Humidity 60%, placement time 14 hours): 8.6 wt %
Water Content When Placed in Different Humidity Environments ([4]; Humidity 60%, placement time 2 days): 16.3 wt %
Water Content When Placed in Different Humidity Environments ([4]; Humidity 60%, placement time 3 days): 22.5 wt %
Water Content When Placed in Different Humidity Environments ([4]; Humidity 60%, placement time 4 days): 23.64 wt %
Water Content When Placed in Different Humidity Environments ([4]; Humidity 60%, placement time 10 days): 23.5 wt %
Water Content When Placed in Different Humidity Environments ([4]; Humidity 90%, placement time 0 hour): 2.7 wt %
Water Content When Placed in Different Humidity Environments ([4]; Humidity 90%, placement time 1 hour): 5.1 wt %
Water Content When Placed in Different Humidity Environments ([4]; Humidity 90%, placement time 2 hours): 5.8 wt %
Water Content When Placed in Different Humidity Environments ([4]; Humidity 90%, placement time 14 hours): 8.9 wt %
Water Content When Placed in Different Humidity Environments ([4]; Humidity 90%, placement time 2 days): 15.9 wt %
Water Content When Placed in Different Humidity Environments ([4]; Humidity 90%, placement time 3 days): 22.7 wt %
Water Content When Placed in Different Humidity Environments ([4]; Humidity 90%, placement time 4 days): 22.8 wt %
Water Content When Placed in Different Humidity Environments ([4]; Humidity 90%, placement time 10 days): 21.9 wt %
Acceleration Test Inspection, Water Content ([6]; product of placement time 1 hour, 15th Day): 23.4 wt %
Acceleration Test Inspection, Water Content ([6]; product of placement time 1 hour, 30th Day): 22.4 wt %
Acceleration Test Inspection, Water Content ([6]; product of placement time 1 hour, 60th Day): 21.8 wt %
Acceleration Test Inspection, Water Content ([6]; product of placement time 2 hours, 15th Day): 22.9 wt %
Acceleration Test Inspection, Water Content ([6]; product of placement time 2 hours, 30th Day): 22.1 wt %
Acceleration Test Inspection, Water Content ([6]; product of placement time 2 hours, 60th Day): 21.5 wt %
Acceleration Test Inspection, Character [6, 9]: Powder
Acceleration Test Inspection, Water Content [6, 9]: 22.7 wt %
Acceleration Test Inspection, Character [6, 10]: Powder
Acceleration Test Inspection, Water Content [6, 10]: 22.0 wt %
Acceleration Test Inspection, Character [6, 11]: Powder
Acceleration Test Inspection, Water Content [6, 11]: 21.4 wt %
Acceleration Test Inspection, Character [6, 12]: Powder
Acceleration Test Inspection, Water Content [6, 12]: 23.0 wt %
Acceleration Test Inspection, Character [6, 13]: Powder
Acceleration Test Inspection, Water Content [6, 13]: 22.5 wt %
Acceleration Test Inspection, Character [6, 14]: Powder
Acceleration Test Inspection, Water Content [6, 14]: 21.6 wt %
Acceleration Test Inspection, Character [6, 15]: Powder
Acceleration Test Inspection, Water Content [6, 15]: 22.1 wt %
Acceleration Test Inspection, Character [6, 16]: Powder
Acceleration Test Inspection, Water Content [6, 16]: 21.8 wt %
Acceleration Test Inspection, Character [6, 17]: Powder
Acceleration Test Inspection, Water Content [6, 17]: 21.5 wt %
Acceleration Test Inspection, Character [6, 18]: Powder
Acceleration Test Inspection, Water Content [6, 18]: 22.9 wt %
Acceleration Test Inspection, Character [6, 19]: Powder
Acceleration Test Inspection, Water Content [6, 19]: 21.8 wt %
Acceleration Test Inspection, Character [6, 20]: Powder
Acceleration Test Inspection, Water Content [6, 20]: 21.8 wt %
Acceleration Test Inspection, Character [6, 21]: Powder
Acceleration Test Inspection, Water Content [6, 21]: 22.0 wt %
Acceleration Test Inspection, Character [6, 22]: Powder
Acceleration Test Inspection, Water Content [6, 22]: 21.7 wt %
Acceleration Test Inspection, Character [6, 23]: Powder
Acceleration Test Inspection, Water Content [6, 23]: 21.9 wt %
character ([6]; water content greater than 6% (wt %), summary of Table 1): basically kept unchanged
SMILES: COc1nc(N)nc2c1ncn2[C@H]1CC[C@@H](CO)O1 [6-methoxy-2′,3′-dideoxyguanosine]
behaviour during the smashing process ([3]; water content higher than 30% (wt %)): easy to be bonded into blocks during the smashing process
moisture absorption ([3]; water content lower than 6% (wt %)): easy to absorb the water; also recorded: very easy to absorb moisture and be blocked
anti-HBV activity [5]: anti-HBV activity
anti-HIV activity [7]: plays the role of fighting against the HIV
metabolism in plasma [8]: rapidly metabolized in plasma to 2′,3′-dideoxyguanosine (ddG)
